# Test results from PMC10466336, “Chemical Probe for Imaging of Polo-like Kinase 4 and Centrioles” (JACS Au, 2023).
# How the values were obtained:
# [1] = target: T1, 6xHis-tagged Plk4 kinase domain (KD) (Homo sapiens, UniProt O00444); experiment: Estimation of fluorescence increase (fluorogenicity) with Plk4 kinase domain versus BSA
# T1 construct: Plasmids encoding fragments of Plk4 kinase domain (2-275) with 6xHis-tag were cloned in pET system vectors; made in house; host or cells: E. coli BL21 gold (DE3)
# T1 sequence (O00444 2-275): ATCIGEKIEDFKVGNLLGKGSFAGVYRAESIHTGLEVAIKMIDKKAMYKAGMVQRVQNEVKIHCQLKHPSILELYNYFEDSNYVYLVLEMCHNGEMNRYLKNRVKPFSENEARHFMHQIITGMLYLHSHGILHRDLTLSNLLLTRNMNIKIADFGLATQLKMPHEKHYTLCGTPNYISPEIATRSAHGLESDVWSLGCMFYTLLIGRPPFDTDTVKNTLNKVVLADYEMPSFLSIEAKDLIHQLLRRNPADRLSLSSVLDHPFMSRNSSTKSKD
# Text: Moreover, we substituted the basic acetyl-piperazine nitrogen in compounds (1 and 2a) with an acetyl-piperidine, to avoid probe protonation and accumulation in endolysosomal compartments (Figure S1A, B).[23] This yielded a second generation of centrinone-based probes (compounds 2b–d). These probes were characterized first in vitro by measuring their fluorogenicity in the presence of the 6xHis-tagged Plk4 kinase domain (KD) (Table 1). […] Next, we measured the binding affinities of the probes to the Plk4 kinase domain via a competition binding assay based on fluorescence polarization. […]
# 1.3.5 Estimation of fluorescence increase
# The probes were analysed as described in Lukinavičius et al. 2014 1. Briefly, SiR650 or SiR595- […]
# purified Plk4 kinase domain (10 µM in 20 mM Tris, 200 mM NaCl at pH 7.5) or to a bovine serum albumin (BSA) (Sigma) solution (0.2 mg/mL in 20 mM Tris, 200 mM NaCl at pH 7.5). Final concentration of the probe was 3 µM. The samples were incubated for 1 h at 37 °C, and fluorescence was measured in a 96-well plate (Greiner Bio-One) on a plate reader (TECAN Spark® 20M).
# Fluorescence emission was recorded from 570 nm to 750 nm for SiR595 probes, and 630 nm to 750 nm for SiR650 while exciting at 550 nm ± 10 nm for SiR595 probes and at 610 ± 10 nm for SiR650 probes.
# A fluorescence excitation scan was recorded by measuring the emission at 660 ± 10 nm for SiR595 and 720 ± 10 nm for SiR650 probes, while exciting from 500 nm to 640 nm for SiR595 probes and from […]
# [2] = target: T2, endogenous Plk4 in HeLa cells expressing Centrin1-GFP (Homo sapiens, UniProt O00444); experiment: Live- and fixed-cell confocal/STED imaging of endogenous Plk4; assay type: cell-based; details: one-step labeling, live cells
# T2 construct: live cell imaging of endogenous Plk4; endogenous in cells; host or cells: HeLa cells stably expressing Centrin1-GFP
# T2 sequence (O00444 1-970): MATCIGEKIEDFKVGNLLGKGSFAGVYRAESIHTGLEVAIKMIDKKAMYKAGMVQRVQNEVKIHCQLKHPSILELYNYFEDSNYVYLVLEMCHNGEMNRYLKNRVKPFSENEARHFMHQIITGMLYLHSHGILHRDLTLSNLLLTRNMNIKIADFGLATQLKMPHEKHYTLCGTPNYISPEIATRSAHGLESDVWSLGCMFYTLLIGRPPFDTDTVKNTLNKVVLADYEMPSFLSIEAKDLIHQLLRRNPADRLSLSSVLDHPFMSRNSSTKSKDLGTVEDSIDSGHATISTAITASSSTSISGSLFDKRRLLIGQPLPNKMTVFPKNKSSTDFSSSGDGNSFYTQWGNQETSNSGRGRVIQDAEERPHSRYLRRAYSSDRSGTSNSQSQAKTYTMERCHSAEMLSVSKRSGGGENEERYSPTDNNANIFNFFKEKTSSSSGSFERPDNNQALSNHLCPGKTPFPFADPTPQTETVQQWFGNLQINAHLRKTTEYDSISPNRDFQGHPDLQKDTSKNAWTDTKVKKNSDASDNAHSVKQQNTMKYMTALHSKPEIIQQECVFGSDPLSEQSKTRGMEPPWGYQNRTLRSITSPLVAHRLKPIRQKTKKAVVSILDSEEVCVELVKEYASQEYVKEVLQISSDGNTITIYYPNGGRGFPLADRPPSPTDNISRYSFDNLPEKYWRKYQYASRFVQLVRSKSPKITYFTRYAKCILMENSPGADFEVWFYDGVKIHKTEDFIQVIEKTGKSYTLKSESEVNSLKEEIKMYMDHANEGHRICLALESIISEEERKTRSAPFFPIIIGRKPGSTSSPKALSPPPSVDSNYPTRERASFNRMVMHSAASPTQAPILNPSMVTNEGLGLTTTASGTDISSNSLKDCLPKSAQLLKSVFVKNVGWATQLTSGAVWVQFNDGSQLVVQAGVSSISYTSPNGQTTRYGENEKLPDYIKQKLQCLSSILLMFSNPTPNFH
compound,measurement,setting,value
COc1c(Nc2cc(C)[nH]n2)nc(Sc2ccc(S(=O)(=O)Cc3cccc([N+](=O)[O-])c3F)cc2F)nc1N1CCC(CC(=O)NCCNC(=O)c2ccc(C(=O)O)c(C3=C4C=CC(=N)C=C4[Si](C)(C)c4cc(N)ccc43)c2)CC1 [2d],increase in fluorescence upon binding,[1]; in presence of Plk4 KD versus BSA,36 fold
same,FPIk4/FBSA,"[1]; mean of F(+Plk4KD)/F(+BSA) and standard deviation, N = 3, probe 3 µM, 1 h 37 °C",36 ± 1
same,labeling of endogenous Plk4 in live HeLa cells,[2],failed to observe specific labeling
